The record followed here is US20110098288A1, “SULFONAMIDES AS ZAP-70 INHIBITORS” (priority 2008, published 2011).

Counter-ions that a name gives are not always drawn.

In the test the target is T1, ZAP-70 (Homo sapiens, UniProt P43403).
T1 construct: endogenous in cells; host or cells: cell lysate
T1 sequence (P43403 1-619): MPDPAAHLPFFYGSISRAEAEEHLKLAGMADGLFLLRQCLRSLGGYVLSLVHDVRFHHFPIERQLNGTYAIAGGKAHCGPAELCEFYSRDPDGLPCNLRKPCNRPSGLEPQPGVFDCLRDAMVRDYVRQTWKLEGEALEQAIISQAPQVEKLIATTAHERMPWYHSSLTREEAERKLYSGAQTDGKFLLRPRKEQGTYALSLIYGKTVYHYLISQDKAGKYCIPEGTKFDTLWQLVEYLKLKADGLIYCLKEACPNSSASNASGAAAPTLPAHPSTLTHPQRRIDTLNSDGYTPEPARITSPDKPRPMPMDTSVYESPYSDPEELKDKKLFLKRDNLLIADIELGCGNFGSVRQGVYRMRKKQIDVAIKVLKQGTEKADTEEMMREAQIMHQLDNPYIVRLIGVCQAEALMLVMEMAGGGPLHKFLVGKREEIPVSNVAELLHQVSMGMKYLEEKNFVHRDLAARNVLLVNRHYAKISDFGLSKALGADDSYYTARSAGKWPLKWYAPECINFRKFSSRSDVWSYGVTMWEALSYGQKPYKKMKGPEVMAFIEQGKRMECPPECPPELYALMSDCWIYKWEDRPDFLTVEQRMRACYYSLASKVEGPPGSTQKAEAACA
The experiment in a line: ZAP-70 kinobeads assay. Type of test: binding. The note with it: competition with immobilized aminopyrido-pyrimidine ligand 24 in cell lysate; ZAP-70 detected by dot blot. The method, then:
The compounds of the present invention as described in the previous examples can be tested in the ZAP-70 kinobeads assay as described (EP-A 1862802 and WO-A 2007/137867). Briefly, test compounds (at various concentrations) and the affinity matrix with the immobilized aminopyrido-pyrimidine ligand 24 are added to cell lysate aliquots and allowed to bind to the proteins in the lysate sample. After the incubation time the beads with captured proteins are separated from the lysate. Bound proteins are then eluted and the presence ZAP-70 is detected and quantified using a specific antibody in a dot blot procedure and the Odyssey infrared detection system. Conventionally, ZAP-70 kinase activity can be measured using purified or recombinant enzyme in a solution-based assay with protein or peptide substrates (Isakov et al., 1996, J. Biol. Chem. 271(26), 15753-15761; Moffat et al., 1999, Bioorg. Med. Chem. Letters 9, 3351-3356).
`COc1ccc(Nc2nc(Nc3cc(OC)c(OC)c(OC)c3)ncc2F)c(NS(C)(=O)=O)c1C` [Example 163, N-(6-(5-fluoro-2-(3,4,5-trimethoxyphenylamino)pyrimidin-4-ylamino)-3-methoxy-2-methylphenyl)methanesulfonamide]: the half-inhibitory concentration (IC50) was 0.1 to 1 µM.

In turn, `Cc1nc(-c2ccc(Nc3ncc(F)c(Nc4ccccc4NS(C)(=O)=O)n3)cc2)no1` [Example 197, N-(2-(5-fluoro-2-(4-(5-methyl-1,2,4-oxadiazol-3-yl)phenylamino)pyrimidin-4-ylamino)phenyl)methanesulfonamide] yielded an IC50 of 1 to 10 µM.

For `CCN(CC)C(=O)c1cccc(Nc2ncc(F)c(Nc3ccccc3NS(C)(=O)=O)n2)c1` [Example 81, N,N-diethyl-3-(5-fluoro-4-(2-(methylsulfonamido)phenylamino)pyrimidin-2-ylamino)benzamide], the IC50 fell in the range of 1 to 10 µM.

`CS(=O)(=O)Nc1ccccc1Nc1nc(Nc2cccc(C#N)c2)ncc1F` [Example 200, N-(2-(2-(3-cyanophenylamino)-5-fluoropyrimidin-4-ylamino)phenyl)methanesulfonamide] showed a 50% inhibitory concentration (IC50) of 1 to 10 µM.

Take `CS(=O)(=O)Nc1ccccc1Nc1nc(Nc2ccccc2)ncc1F` [Example 34, N-(2-(5-fluoro-2-(phenylamino)pyrimidin-4-ylamino)phenyl)methanesulfonamide]: the 50% inhibitory concentration (IC50) was 1 to 10 µM.

As for `CS(=O)(=O)Nc1ccccc1Nc1nc(Nc2cccc(-n3cnnn3)c2)ncc1Cl` [Example 203, N-(2-(2-(3-(1H-tetrazol-1-yl)phenylamino)-5-chloropyrimidin-4-ylamino)phenyl)methanesulfonamide], the half-maximal inhibitory concentration (IC50) lay within 0.1 to 1 µM.

`CS(=O)(=O)Nc1ccccc1Nc1nc(Nc2ccc(C#N)cc2)ncc1Cl` [Example 204, N-(2-(5-chloro-2-(4-cyanophenylamino)pyrimidin-4-ylamino)phenyl)methanesulfonamide] returned an IC50 of 1 to 10 µM.

`COc1ccc(Nc2ncc(F)c(Nc3ccccc3N(C)S(C)(=O)=O)n2)cc1` [Example 108, N-(2-(5-fluoro-2-(4-methoxyphenylamino)pyrimidin-4-ylamino)phenyl)-N-methylmethanesulfonamide]: the concentration for half-maximal inhibition (IC50) lay in the range of 1 to 10 µM.

Turning to `CS(=O)(=O)Nc1ccccc1Nc1nc(Nc2cccc(OCC(=O)O)c2)ncc1F` [Example 99, 2-(3-(5-fluoro-4-(2-(methylsulfonamido)phenylamino)pyrimidin-2-ylamino)phenoxy)acetic acid hydrochloride], the IC50 was in the range of 0.1 to 1 µM.

For `CNC(=O)c1cccc(Nc2ncc(F)c(Nc3ccccc3NS(C)(=O)=O)n2)c1` [Example 80, 3-(5-fluoro-4-(2-(methylsulfonamido)phenylamino)pyrimidin-2-ylamino)-N-methylbenzamide], the IC50 lay in the range of 1 to 10 µM.

Take `CCN(c1ccccc1Nc1nc(Nc2ccc(OC)cc2)ncc1F)S(C)(=O)=O` [Example 156, N-ethyl-N-(2-(5-fluoro-2-(4-methoxyphenylamino)pyrimidin-4-ylamino)phenyl)methanesulfonamide]: the 50% inhibitory concentration (IC50) was in the range of 0.1 to 1 µM.

With `CS(=O)(=O)Nc1ccccc1Nc1nc(Nc2ccc3nn[nH]c3c2)ncc1F` [Example 33, N-(2-(2-(1H-benzo[d][1,2,3]-triazol-6-ylamino)-5-fluoropyrimidin-4-ylamino)phenyl)methanesulfonamide], the IC50 is 0.1 to 1 µM.

Compound `CSc1cccc(Nc2ncc(F)c(Nc3ccccc3NS(C)(=O)=O)n2)c1` [Example 15, N-(2-(5-fluoro-2-(3-(methylthio)phenylamino)pyrimidin-4-ylamino)phenyl)methanesulfonamide] displayed a 50% inhibitory concentration (IC50) of 1 to 10 µM.

`CCN(c1ccccc1Nc1nc(Nc2cc(C)cc(C)c2)ncc1F)S(C)(=O)=O` [Example 155, N-(2-(2-(3,5-dimethylphenylamino)-5-fluoropyrimidin-4-ylamino)phenyl)-N-ethylmethanesulfonamide] came in with a half-inhibitory concentration (IC50) of 1 to 10 µM.

As for `CCN(c1ccccc1Nc1nc(Nc2ccc(OC)c(OC)c2)ncc1F)S(C)(=O)=O` [Example 157, N-(2-(2-(3,4-dimethoxyphenylamino)-5-fluoropyrimidin-4-ylamino)phenyl)-N-ethylmethanesulfonamide], the IC50 lay within 1 to 10 µM.

`COc1ccc(Nc2nc(Nc3ccc(OC)c(OC)c3)ncc2Br)c(NS(C)(=O)=O)c1` [Example 179, N-(2-(5-bromo-2-(3,4-dimethoxyphenylamino)pyrimidin-4-ylamino)-5-methoxyphenyl)methanesulfonamide]: the 50% inhibitory concentration (IC50) was < 0.1 µM.

As for `CS(=O)(=O)Nc1ccccc1Nc1nc(Nc2cccc(N3CCCC3)c2)ncc1F` [Example 85, N-(2-(5-fluoro-2-(3-(pyrrolidin-1-yl)phenylamino)pyrimidin-4-ylamino)phenyl)methanesulfonamide], the IC50 lay within 1 to 10 µM.

The compound `COc1cc(Nc2ncc(F)c(Nc3cccc(C)c3NS(C)(=O)=O)n2)cc(OCC(C)C)c1OC` [Example 119, N-(2-(5-fluoro-2-(3-isobutoxy-4,5-dimethoxyphenylamino)pyrimidin-4-ylamino)-6-methylphenyl)methanesulfonamide] yielded a half-maximal inhibitory concentration (IC50) of 0.1 to 1 µM.

For `COc1cc(Nc2ncc(F)c(Nc3ccccc3NS(=O)(=O)c3cccnc3)n2)cc(OC)c1OC` [Example 52, N-(2-(5-fluoro-2-(3,4,5-trimethoxyphenylamino)pyrimidin-4-ylamino)phenyl)pyridine-3-sulfonamide], the half-maximal inhibitory concentration (IC50) lay within 1 to 10 µM.

Consider `Cc1nc(-c2cccc(Nc3ncc(F)c(Nc4ccccc4NS(C)(=O)=O)n3)c2)no1` [Example 189, N-(2-(5-fluoro-2-(3-(5-methyl-1,2,4-oxadiazol-3-yl)phenylamino)pyrimidin-4-ylamino)phenyl)methanesulfonamide], for which the IC50 is 1 to 10 µM.

As for `CS(=O)(=O)Nc1ccccc1Nc1nc(Nc2ccc(C#N)cc2)ncc1F` [Example 196, N-(2-(2-(4-cyanophenylamino)-5-fluoropyrimidin-4-ylamino)phenyl)methanesulfonamide], the IC50 lay within 1 to 10 µM.

With `CS(=O)(=O)Nc1ccccc1Nc1nc(Nc2cccc(-c3nnn[nH]3)c2)ncc1F` [Example 190, N-(2-(2-(3-(1H-tetrazol-5-yl)phenylamino)-5-fluoropyrimidin-4-ylamino)phenyl)methanesulfonamide], the half-inhibitory concentration (IC50) fell in the range of 1 to 10 µM.

In the case of `COc1cc(Nc2ncc(F)c(Nc3ccccc3NS(C)(=O)=O)n2)cc(OC)c1OCCN1CCCC1` [Example 75, N-(2-(2-(3,5-dimethoxy-4-(2-(pyrrolidin-1-yl)ethoxy)phenylamino)-5-fluoropyrimidin-4-ylamino)phenyl)methanesulfonamide], the IC50 is < 0.1 µM.

`CS(=O)(=O)Nc1ccccc1Nc1nc(Nc2cccc(C(=O)NC3CC3)c2)ncc1F` [Example 83, N-cyclopropyl-3-(5-fluoro-4-(2-(methylsulfonamido)phenylamino)pyrimidin-2-ylamino)benzamide] displayed a 50% inhibitory concentration (IC50) of 1 to 10 µM.

With `Cc1cccc(Nc2nc(Nc3cccc(OC(C)C)c3)ncc2F)c1NS(C)(=O)=O` [Example 121, N-(2-(5-fluoro-2-(3-isopropoxyphenylamino)pyrimidin-4-ylamino)-6-methylphenyl)methanesulfonamide], the 50% inhibitory concentration (IC50) lay within 1 to 10 µM.

On to `CS(=O)(=O)Nc1ccccc1Nc1nc(Nc2cccc(-n3cnnn3)c2)ncc1Br` [Example 216, N-(2-(2-(3-(1H-tetrazol-1-yl)phenylamino)-5-bromopyrimidin-4-ylamino)phenyl)methanesulfonamide], for which the half-maximal inhibitory concentration (IC50) fell in the range of 0.1 to 1 µM.

`Cc1cc(C)n(-c2cccc(Nc3ncc(Cl)c(Nc4ccccc4NS(C)(=O)=O)n3)c2)n1` [Example 209, N-(2-(5-chloro-2-(3-(3,5-dimethyl-M-pyrazol-1-yl)phenylamino)pyrimidin-4-ylamino)phenyl)methanesulfonamide] gave a half-maximal inhibitory concentration (IC50) of 1 to 10 µM.

As to `COc1cc(Nc2ncc(F)c(Nc3ccccc3NS(C)(=O)=O)n2)cc(OCCN2CCCC2)c1OC` [Example 74, N-(2-(2-(3,4-dimethoxy-5-(2-(pyrrolidin-1-yl)ethoxy)phenylamino)-5-fluoropyrimidin-4-ylamino)phenyl)methanesulfonamide], the half-inhibitory concentration (IC50) fell in the range of 0.1 to 1 µM.

Turning to `COCCOc1cccc(Nc2ncc(F)c(Nc3cccc(C)c3NS(C)(=O)=O)n2)c1` [Example 115, N-(2-(5-fluoro-2-(3-(2-methoxyethoxy)phenylamino)pyrimidin-4-ylamino)-6-methylphenyl)methanesulfonamide], the IC50 lay within 0.1 to 1 µM.

For the compound `CN1C(=O)COc2ccc(Nc3ncc(F)c(Nc4ccccc4NS(C)(=O)=O)n3)cc21` [Example 20, N-(2-(5-fluoro-2-(4-methyl-3-oxo-3,4-dihydro-2H-benzo[b][1,4]oxazin-6-ylamino)pyrimidin-4-ylamino)phenyl)methanesulfonamide], the half-inhibitory concentration (IC50) was in the range of 1 to 10 µM.
